According to patent US20260234159A1, “SMALL MOLECULE TREATMENT OF FATTY LIVER DISEASE AND HCC” (SCANDIEDGE THERAPEUTICS AB, priority 2023, published 2026):

Legend:
HepG2 cells = experiment: Wound healing assay; assay type: cell-based; conditions: Homo sapiens, HepG2, 96 h, day 4, untreated 100% wound closure, read-out: wound healing delayed by
Method in brief: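 HepG2 monolayers grown to 95-100% confluence were scratched with a pipette tip and treated with compounds at 1 μM. Wounds were imaged from day 0 until closure in the control group, and wound area was measured from the images.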

[1] = In vivo toxicological study in rats: plasma chemistry; set-up: species or system rats of the Wistar strain
Protocol: Forty-two male and forty-two female rats of the Wistar strain were allocated to the study. Three groups of three males and three females were given doses of 30, 100 and 300 mg/kg of target compounds (Table 8). The vehicle was 1.5 w/w % HPMC, 1.5 w/w % PS80 in 10 mM PBS, pH 7 and dose volume were 5 mL/kg. The animals were acclimatised at least 14 day prior to the study and exposed to a 12 hours light, 12 hours dark light cycle. The formulations were administered via oral gavage. Administration occurred once daily in the morning for seven consecutive days. Blood for scheduled haematology and plasma chemistry were taken at necropsy. For plasma chemistry, 0.6 ml blood (lithium heparin) per animal and for haematology, 0.5 ml blood (K2EDTA) per animal. The blood and plasma were analysed using Exigo analyzer and Vetscan equipment. Blood samples were kept in room temperature […] after collection and mixing. The blood samples were analysed as whole blood within 60 min of collection. The VetScan analyser was calibrated with calibration samples of known plasma levels of each parameter before start of analysis, occasionally during the analysis period of study samples and after completed analyses (Table 10).

[2] = female, 30 mg/kg oral daily 7 d
[3] = female, 100 mg/kg oral daily 7 d
[4] = female, 300 mg/kg oral daily 7 d

N#Cc1c(NC(=O)c2cccc3ccccc23)sc2c1CCCC2 [JNK-IN-5A, N-(3-cyano-4,5,6,7-tetrahydrobenzo[b]thiophen-2-yl)-1-naphthamide]
inhibition at 1 µM (HepG2 cells): 32.7%

COc1ccc(C(=O)Nc2sc3c(c2C#N)CCCCC3)cc1OC [PKL-A135, N-(3-cyano-5,6,7,8-tetrahydro-4H-cyclohepta[b]thiophen-2-yl)-3,4-dimethoxy-benzamide]
ALB [1, 2]: 56 g/L
ALP [1, 2]: 117 U/L
ALT [1, 2]: 23 U/L
AMY [1, 2]: 564 U/L
BUN [1, 2]: 6.0 mmol/L
CA [1, 2]: 2.91 mmol/L
CRE [1, 2]: 31 µmol/L
GLOB [1, 2]: 8 g/L
GLU [1, 2]: 8.1 mmol/L
K+ [1, 2]: 4.6 mmol/L
NA+ [1, 2]: 141 mmol/L
PHOS [1, 2]: 2.30 mmol/L
TBIL [1, 2]: 5.3 µmol/L
TP [1, 2]: 64 g/L
ALB [1, 3]: 59 g/L
ALP [1, 3]: 126 U/L
ALT [1, 3]: 23 U/L
AMY [1, 3]: 589 U/L
BUN [1, 3]: 5.7 mmol/L
CA [1, 3]: 2.96 mmol/L
CRE [1, 3]: 44 µmol/L
GLOB [1, 3]: 11 g/L
GLU [1, 3]: 7.9 mmol/L
K+ [1, 3]: 4.4 mmol/L
NA+ [1, 3]: 140 mmol/L
PHOS [1, 3]: 2.34 mmol/L
TBIL [1, 3]: 5.0 µmol/L
TP [1, 3]: 71 g/L
ALB [1, 4]: 59 g/L
ALP [1, 4]: 156 U/L
ALT [1, 4]: 20 U/L
AMY [1, 4]: 590 U/L
BUN [1, 4]: 5.3 mmol/L
CA [1, 4]: 3.00 mmol/L
CRE [1, 4]: 41 µmol/L
GLOB [1, 4]: 9 g/L
GLU [1, 4]: 7.8 mmol/L
K+ [1, 4]: 4.6 mmol/L
NA+ [1, 4]: 142 mmol/L
PHOS [1, 4]: 2.91 mmol/L
TBIL [1, 4]: 5.3 µmol/L
TP [1, 4]: 67 g/L
ALB ([1]; male, 30 mg/kg oral daily 7 d): 50 g/L
ALP ([1]; male, 30 mg/kg oral daily 7 d): 234 U/L
ALT ([1]; male, 30 mg/kg oral daily 7 d): 33 U/L
AMY ([1]; male, 30 mg/kg oral daily 7 d): 757 U/L
BUN ([1]; male, 30 mg/kg oral daily 7 d): 5.6 mmol/L
CA ([1]; male, 30 mg/kg oral daily 7 d): 3.01 mmol/L
CRE ([1]; male, 30 mg/kg oral daily 7 d): 39 µmol/L
GLOB ([1]; male, 30 mg/kg oral daily 7 d): 15 g/L
GLU ([1]; male, 30 mg/kg oral daily 7 d): 8.5 mmol/L
K+ ([1]; male, 30 mg/kg oral daily 7 d): 4.80 mmol/L
NA+ ([1]; male, 30 mg/kg oral daily 7 d): 140 mmol/L
PHOS ([1]; male, 30 mg/kg oral daily 7 d): 2.20 mmol/L
TBIL ([1]; male, 30 mg/kg oral daily 7 d): 5.0 µmol/L
TP ([1]; male, 30 mg/kg oral daily 7 d): 65 g/L
ALB ([1]; male, 100 mg/kg oral daily 7 d): 50 g/L
ALP ([1]; male, 100 mg/kg oral daily 7 d): 259 U/L
ALT ([1]; male, 100 mg/kg oral daily 7 d): 25 U/L
AMY ([1]; male, 100 mg/kg oral daily 7 d): 770 U/L
BUN ([1]; male, 100 mg/kg oral daily 7 d): 5.6 mmol/L
CA ([1]; male, 100 mg/kg oral daily 7 d): 2.95 mmol/L
CRE ([1]; male, 100 mg/kg oral daily 7 d): 36 µmol/L
GLOB ([1]; male, 100 mg/kg oral daily 7 d): 12 g/L
GLU ([1]; male, 100 mg/kg oral daily 7 d): 8.9 mmol/L
K+ ([1]; male, 100 mg/kg oral daily 7 d): 4.83 mmol/L
NA+ ([1]; male, 100 mg/kg oral daily 7 d): 138 mmol/L
PHOS ([1]; male, 100 mg/kg oral daily 7 d): 2.51 mmol/L
TBIL ([1]; male, 100 mg/kg oral daily 7 d): 4.7 µmol/L
TP ([1]; male, 100 mg/kg oral daily 7 d): 61 g/L
ALB ([1]; male, 300 mg/kg oral daily 7 d): 50 g/L
ALP ([1]; male, 300 mg/kg oral daily 7 d): 275 U/L
ALT ([1]; male, 300 mg/kg oral daily 7 d): 28 U/L
AMY ([1]; male, 300 mg/kg oral daily 7 d): 835 U/L
BUN ([1]; male, 300 mg/kg oral daily 7 d): 5.7 mmol/L
CA ([1]; male, 300 mg/kg oral daily 7 d): 2.98 mmol/L
CRE ([1]; male, 300 mg/kg oral daily 7 d): 38 µmol/L
GLOB ([1]; male, 300 mg/kg oral daily 7 d): 13 g/L
GLU ([1]; male, 300 mg/kg oral daily 7 d): 9.0 mmol/L
K+ ([1]; male, 300 mg/kg oral daily 7 d): 5.2 mmol/L
NA+ ([1]; male, 300 mg/kg oral daily 7 d): 140 mmol/L
PHOS ([1]; male, 300 mg/kg oral daily 7 d): 2.64 mmol/L
TBIL ([1]; male, 300 mg/kg oral daily 7 d): 5.0 µmol/L
TP ([1]; male, 300 mg/kg oral daily 7 d): 63 g/L
inhibition at 1 µM (HepG2 cells): 31.2%

COc1ccccc1NC(=O)N1CCc2c(sc(NC(=O)c3cccc4ccccc34)c2C#N)C1 [PKL-A152]
ALB [1, 2]: 56 g/L
ALP [1, 2]: 84 U/L
ALT [1, 2]: 23 U/L
AMY [1, 2]: 548 U/L
BUN [1, 2]: 4.9 mmol/L
CA [1, 2]: 2.90 mmol/L
CRE [1, 2]: 44 µmol/L
GLOB [1, 2]: 7 g/L
GLU [1, 2]: 8.0 mmol/L
K+ [1, 2]: 2.9 mmol/L
NA+ [1, 2]: 148 mmol/L
PHOS [1, 2]: 2.28 mmol/L
TBIL [1, 2]: 4.0 µmol/L
TP [1, 2]: 64 g/L
ALB [1, 3]: 58 g/L
ALP [1, 3]: 162 U/L
ALT [1, 3]: 20 U/L
AMY [1, 3]: 573 U/L
BUN [1, 3]: 6.0 mmol/L
CA [1, 3]: 2.87 mmol/L
CRE [1, 3]: 48 µmol/L
GLOB [1, 3]: 8 g/L
GLU [1, 3]: 7.8 mmol/L
K+ [1, 3]: 4.5 mmol/L
NA+ [1, 3]: 139 mmol/L
PHOS [1, 3]: 2.38 mmol/L
TBIL [1, 3]: 4.7 µmol/L
TP [1, 3]: 66 g/L
ALB [1, 4]: 56 g/L
ALP [1, 4]: 134 U/L
ALT [1, 4]: 21 U/L
AMY [1, 4]: 539 U/L
BUN [1, 4]: 5.2 mmol/L
CA [1, 4]: 2.92 mmol/L
CRE [1, 4]: 51 µmol/L
GLOB [1, 4]: 8 g/L
GLU [1, 4]: 7.7 mmol/L
K+ [1, 4]: 4.8 mmol/L
NA+ [1, 4]: 140 mmol/L
PHOS [1, 4]: 2.39 mmol/L
TBIL [1, 4]: 4.7 µmol/L
TP [1, 4]: 64 g/L
ALB ([1]; male, 30 mg/kg oral daily 7 d): 50 g/L
ALP ([1]; male, 30 mg/kg oral daily 7 d): 272 U/L
ALT ([1]; male, 30 mg/kg oral daily 7 d): 30 U/L
AMY ([1]; male, 30 mg/kg oral daily 7 d): 837 U/L
BUN ([1]; male, 30 mg/kg oral daily 7 d): 5.7 mmol/L
CA ([1]; male, 30 mg/kg oral daily 7 d): 2.99 mmol/L
CRE ([1]; male, 30 mg/kg oral daily 7 d): 42 µmol/L
GLOB ([1]; male, 30 mg/kg oral daily 7 d): 13 g/L
GLU ([1]; male, 30 mg/kg oral daily 7 d): 8.0 mmol/L
K+ ([1]; male, 30 mg/kg oral daily 7 d): 4.6 mmol/L
NA+ ([1]; male, 30 mg/kg oral daily 7 d): 140 mmol/L
PHOS ([1]; male, 30 mg/kg oral daily 7 d): 2.11 mmol/L
TBIL ([1]; male, 30 mg/kg oral daily 7 d): 4.0 µmol/L
TP ([1]; male, 30 mg/kg oral daily 7 d): 63 g/L
ALB ([1]; male, 100 mg/kg oral daily 7 d): 51 g/L
ALP ([1]; male, 100 mg/kg oral daily 7 d): 267 U/L
ALT ([1]; male, 100 mg/kg oral daily 7 d): 25 U/L
AMY ([1]; male, 100 mg/kg oral daily 7 d): 838 U/L
BUN ([1]; male, 100 mg/kg oral daily 7 d): 5.7 mmol/L
CA ([1]; male, 100 mg/kg oral daily 7 d): 2.98 mmol/L
CRE ([1]; male, 100 mg/kg oral daily 7 d): 42 µmol/L
GLOB ([1]; male, 100 mg/kg oral daily 7 d): 12 g/L
GLU ([1]; male, 100 mg/kg oral daily 7 d): 8.2 mmol/L
K+ ([1]; male, 100 mg/kg oral daily 7 d): 4.7 mmol/L
NA+ ([1]; male, 100 mg/kg oral daily 7 d): 141 mmol/L
PHOS ([1]; male, 100 mg/kg oral daily 7 d): 2.57 mmol/L
TBIL ([1]; male, 100 mg/kg oral daily 7 d): 5.0 µmol/L
TP ([1]; male, 100 mg/kg oral daily 7 d): 63 g/L
ALB ([1]; male, 300 mg/kg oral daily 7 d): 49 g/L
ALP ([1]; male, 300 mg/kg oral daily 7 d): 244 U/L
ALT ([1]; male, 300 mg/kg oral daily 7 d): 28 U/L
AMY ([1]; male, 300 mg/kg oral daily 7 d): 854 U/L
BUN ([1]; male, 300 mg/kg oral daily 7 d): 5.5 mmol/L
CA ([1]; male, 300 mg/kg oral daily 7 d): 3.04 mmol/L
CRE ([1]; male, 300 mg/kg oral daily 7 d): 51 µmol/L
GLOB ([1]; male, 300 mg/kg oral daily 7 d): 14 g/L
GLU ([1]; male, 300 mg/kg oral daily 7 d): 8.6 mmol/L
K+ ([1]; male, 300 mg/kg oral daily 7 d): 4.5 mmol/L
NA+ ([1]; male, 300 mg/kg oral daily 7 d): 143 mmol/L
PHOS ([1]; male, 300 mg/kg oral daily 7 d): 2.47 mmol/L
TBIL ([1]; male, 300 mg/kg oral daily 7 d): 4.7 µmol/L
TP ([1]; male, 300 mg/kg oral daily 7 d): 63 g/L
